Measurements as given in patent US20090253743A1, “COMPOSITIONS OF TOLPERISONE” (Avigen, Inc., priority 2007, published 2009).
Counter-ions that a name gives are not always drawn.

Legend:
Format in all cases: physicochemical
[1] = HPLC-MS/MS analysis of 4-MMPPO content in tolperisone compositions; conditions: drug lot (API) used in the tablet
Method: Tolperisone compositions were obtained from various commercial sources and analyzed for 4-MMPPO content by HPLC-MS/MS.
All samples used in the analytical sequence were prepared for analysis as follows. Sample were homogenized if necessary (e.g., tablets) and weighed. For each tolperisone sample, approximately 20 mg of sample was added into a 20 mL flask. 20 mL of 50 mM HCl in MeOH was added to the flask, which was then placed in an ultrasonic bath for about 5 minutes. The contents of the flask were mixed on a vortexer for about 20 seconds. In instances in which the tolperisone sample had initially been in tablet form, the solution was then centrifuged at 4000 rpm for 2 minutes. 200 μL of the sample was then transferred into a small conical centrifuge vial. 20 μL of an internal standard solution containing deuterated 4-MMPPO, 200 μL of buffer at pH 1, and 0.4 mL of diisopropyl ether (DIPE) were added to the vial. The sample was then extracted by vortexing with a DVX-2500 multi-tube vortexer (2100 rpm) for about 2 minutes (cycle: 5 seconds run, 1 second pause time) and centrifugation (phase separation) at 4000 rpm for 2 minutes. 150 μL of 50 mM HCl in MeOH/DMSO (½) was added into empty designated conical autosampler vials. After centrifugation, 100 μL of supernatant was transferred into these conical autosampler vials. The vials were crimped and vortexed with a DVX-2500 multi-tube vortexer (2100 rpm) for about 1 minute. 7 μL of the prepared sample was then injected immediately into an HPLC-MS/MS system or the sample was stored at a temperature below −20° C. until analysis. The chromatography conditions and mass spectrometry parameters used for analysis of 4-MMPPO are shown below in Tables 1 and 2, respectively.
Lots of tolperisone were obtained from manufacturers A and B, as were the final manufactured tablet formulations. Analyses were carried out as described in Example 1 to determine 4-MMPPO levels in both drug lots and final manufactured formulations.

[2] = Stability studies of 4-MMPPO / tolperisone HCl solutions (liquid-liquid extraction, HPLC-MS/MS)
Method: The analytical method employed utilized liquid-liquid extraction and HPLC separation on a C18-column with MS/MS detection and internal standardization.
Test solution: 50 mM HCl in methanol containing 40 mg per 200 μL of tolperisone HCl (containing 4-MMPPO as an impurity)
Samples were prepared for analysis generally as follows. 200 μL of IS working solution was added to the dry weighed bulk material or to the 20 μL aliquots. The samples were vortexed, followed by addition of 200 μL of buffer solution. 0.40 mL of DIPE (diisopropyl ether) was then added, followed by extraction via vortexing, and phase separation via centrifugation. About 250 μL of supernatant solution was then transferred into each 5 mL conical centrifuge vial, followed by addition of 200 μL of buffer solution. The major portion of tolperisone was then re-extracted into the watery phase by vortexing, followed by phase separation by centrifugation. 50 μL of centrifugation supernatant was then transferred to each auto sample vial containing injection solution (75 μL of 50 mM HCl in DMSO/MeOH 2/1). Samples were capped (crimped) and vortexed, followed by injection of 7 μL sample into the HPLC-MS/MS system for analysis.
During stability studies for a calibration range from 1-200 ppm, various solutions: a) 4-MMPPO in tolperisone free solution (“reference solution”), b) tolperisone HCl solution (default concentration of 10 mg/mL) without spiking of any 4-MMPPO (“test solution”), and c) tolperisone HCl solution (default concentration of 10 mg/mL) spiked with 4-MMPPO (“spiked test solution”) were assessed under the following storage conditions: (i) for three freeze thaw cycles prior to sample preparation for analysis, (ii) at bench top temperature for 4 hours, and (iii) at auto sampler conditions for 12 hours after sample preparation for analysis. […] Additionally, 4-MMPPO was stable at −70° C. for 2 months prior to sample preparation for analysis.
During stability studies for a concentration range from 0.05-25 ppm, various solutions: a) 4-MMPPO in tolperisone free solution (“reference solution”), b) tolperisone HCl solution (default concentration of 200 mg/mL) without spiking of any 4-MMPPO (“test solution”), and c) tolperisone HCl solution (default concentration of 200 mg/mL) spiked with 4-MMPPO (“spiked test solution”) were assessed under the following storage conditions: (i) at bench top temperature for 2 hours prior to sample preparation for analysis, and (ii) at auto sampler conditions for 14 hours after sample preparation for analysis.

[3] = HPLC-MS/MS analysis of 4-MMPPO content in tolperisone compositions
[4] = calibration range 1-200 ppm, tolperisone HCl 10 mg/mL, each of: three freeze thaw cycles, bench top 4 hours, auto sampler 12 hours
[5] = range 0.05-25 ppm, tolperisone HCl 200 mg/mL, auto sampler conditions 14 hours after sample preparation

## Cc1ccc(C(=O)C(C)CN2CCCCC2)cc1 (centres unmarked) [SB0068, tolperisone]
[1]
  [4-MMPPO in Drug Lot or API], ppm: 39 ppm

## Cc1ccc(C(=O)C(C)CN2CCCCC2)cc1 (centres unmarked) [SD0108, tolperisone]
[1]
  [4-MMPPO in Drug Lot or API], ppm: 14 ppm

## Cc1ccc(C(=O)C(C)CN2CCCCC2)cc1 (centres unmarked) [SE0107, tolperisone]
[1]
  [4-MMPPO in Drug Lot or API], ppm: 20 ppm

## Cc1ccc(C(=O)C(C)CN2CCCCC2)cc1 (centres unmarked) [SF0191, tolperisone]
[1]
  [4-MMPPO in Drug Lot or API], ppm: 22 ppm

## Cc1ccc(C(=O)C(C)CN2CCCCC2)cc1 (centres unmarked) [SFO192, tolperisone]
[1]
  [4-MMPPO in Drug Lot or API], ppm: 21 ppm
[1]; listed as SF0192
  [4-MMPPO in Drug Lot or API], ppm: 21 ppm

## C=C(C)C(=O)c1ccc(C)cc1 [Sample 4-MMPPO, 2-methyl-1-(4-methylphenyl)-propenone]
[2]; [4]
  4-MMPPO concentration on storage of solution: constant 4-MMPPO concentration
[2]; [5]
  4-MMPPO concentration on storage of solution: constant 4-MMPPO concentration
[2]; −70° C. for 2 months
  stability prior to sample preparation: stable

## Cc1ccc(C(=O)C(C)CN2CCCCC2)cc1 (centres unmarked) [tolperisone HCl, tolperisone hydrochloride]
[2]; [4]
  4-MMPPO concentration on storage of solution: slight increase
[2]; [5]
  4-MMPPO concentration on storage of solution: constant 4-MMPPO concentration
[2]; range 0.05-25 ppm, tolperisone HCl 200 mg/mL, bench top temperature 2 hours prior to sample preparation
  4-MMPPO concentration on storage of solution: slight increase
[3]; recrystallized, washed with MTBE saturated with citric acid
  level of 4-MMPPO: below 1 ppm

## Cc1ccc(C(=O)C(C)CN2CCCCC2)cc1 (centres unmarked) [tolperisone, 2-methyl-1-(4-methylphenyl)-3-(-piperidinyl)-1-propanone]
[3]; Example 2, single standard recrystallization from 2-butanone/isopropanol, dried at 45-85° C.
  4-MMPPO in recrystallized tolperisone: 0.14 % by weight
[3]; Example 2, subsequent production batches
  4-MMPPO in recrystallized tolperisone: < 0.05%
[3]; Example 5, 1% (v/v) concentrated aqueous HCl added to the recrystallization mixture
  4-MMPPO levels in the final recrystallized tolperisone product: below 6.6 ppm
[3]; in the presence of acid
  stability during recrystallization: enhanced stability
